From patent publication US5723462A, “Certain fused pyrrolecarboxamides a new class of GABA brain receptor ligands” (Neurogen Corporation, priority 1996, dated 1998)

System: GABA receptor
Assay: not given
Conditions: Tallman et al., 1978; cited from earlier work

SMILES | blockade of the enhancement of benzodiazepine binding by GABA agonists
CN1CCc2cc3c(cc2C1C1OC(=O)c2c1ccc1c2OCO1)OCO3 (single isomer, unassigned; (+)) [(+) bicuculline] | blocked
CN1CCc2cc3c(cc2C1C1OC(=O)c2c1ccc1c2OCO1)OCO3 (single isomer, unassigned; (-)) [(-) bicuculline] | much less active

Molecular target: GABAa receptor
Assay: GABAa receptor binding assay ([3H]-Flumazenil, RO15-1788 displacement, rat cortical tissue)
Conditions: 0.5 nM 3H-RO15-1788, 30 min at 4° C.
Procedure: The pharmaceutical utility of compounds of this invention are indicated by the following assay for GABAa receptor binding activity.
Assays are carried out as described in Thomas and Tallman (J. Bio. Chem. 156: 9838-9842, J. Neurosci. 3: 433-440, 1983). Rat cortical tissue is dissected and homogenized in 25 volumes (w/v) of 0.05M Tris HCl buffer (pH 7.4 at 4° C.). The tissue homogenate is centrifuged in the cold (4° ) at 20,000×g for 20'. The supernatant is decanted and the pellet is rehomogenized in the same volume of buffer and again centrifuged at 20,000×g. The supernatant is decanted and the pellet is frozen at -20° C. overnight. The pellet is then thawed and rehomogenized in 25 volume (original wt/vol) of buffer and the procedure is carried out twice. The pellet is finally resuspended in 50 volumes (w/vol of 0.05M Tris HCl buffer (pH 7.4 at […]).
Incubations contain […] of tissue homogenate, […] of radioligand 0.5 nM (^3 H-RO15-1788 [^3 H-Flumazenil] specific activity 80 Ci/mmol), drug or blocker and buffer to a total volume of […]. Incubations are carried for 30 min at 4° C. then are rapidly filtered through GFB filters to separate free and bound ligand. Filters are washed twice with fresh 0.05M Tris HCl buffer (pH 7.4 at 4° C.) and counted in a liquid scintillation counter. 1.0 mM diazepam is added to some tubes to determine nonspecific binding. Data are collected in triplicate determinations, averaged and % inhibition of total specific binding is calculated. Total Specific Binding=Total-Nonspecific. In some cases, the amounts of unlabeled drugs is varied and total displacement curves of binding are carried out. Data are converted to IC50 or Ki.

SMILES | Ki [nM]
COc1ccc2ccc(NC(=O)c3c[nH]c4c3C(=O)CCC4)nc2n1 [Compound 3, N-(2-methoxy-1,8-napthyridin-7-yl)-4-oxo-4,5,6,7-tetrahydro-1H-indole-3-carboxamide] | 66
COc1ccc(NC(=O)c2c[nH]c3c2C(=O)CCC3)cn1 [Compound 1] | 11
O=C(Nc1ccccn1)c1c[nH]c2c1C(=O)CCC2 [Compound 4, N-(2-Pyridyl)-4-oxo-4,5,6,7-tetrahydro-1H-indole-3-carboxamide] | 3
O=C(Nc1cccnc1)c1c[nH]c2c1C(=O)CCCC2 [Compound 6, N-(3-Pyridyl)-4-oxo-1,4,5,6,7,8-hexahydro-cyclohepta[b]pyrrole-3-carboxamide] | 25
O=C(Nc1nccs1)c1c[nH]c2c1C(=O)CCCC2 [Compound 5, N-(2-Thiazolyl)-4-oxo-1,4,5,6,7,8-hexahydro-cyclohepta[b]pyrrole-3-carboxamide] | 2
O=C(Nc1ccsc1)c1c[nH]c2c1C(=O)CCC2 [Compound 2, N-(3-thienyl)-4-oxo-4,5,6,7-tetrahydro-1H-indole-3-carboxamide] | 3

Results, then the molecule that gave them:

Ki [nM] | SMILES
15 | CC1(C)CCc2[nH]cc(C(=O)Nc3ccsc3)c2C1=O [Compound 7, N-(3-Thienyl)-4-oxo-5,5-dimethyl-4,5,6,7-tetrahydro-1H-indole-3-carboxamide]
50 | O=C(Nc1ccc2ccccc2n1)c1c[nH]c2c1C(=O)CCC2 [Compound 12, N-(2-Quinolinyl)-4-oxo-4,5,6,7-tetrahydro-1H-indole-3-carboxamide]
9 | Cc1cnc(NC(=O)c2c[nH]c3c2C(=O)CCC3)s1 [Compound 9, N-(5-Methyl-2-thiazolyl)-4-oxo-4,5,6,7-tetrahydro-1H-indole-3-carboxamide]
2 | CC1(C)CCc2[nH]cc(C(=O)Nc3nccs3)c2C1=O [Compound 8, N-(2-Thiazolyl)-4-oxo-5,5-dimethyl-4,5,6,7-tetrahydro-1H-indole-3-carboxamide]
64 | O=C(Nc1ccc2nccnc2c1)c1c[nH]c2c1C(=O)CCC2 [Compound 13, N-(6-Quinoxalinyl)-4-oxo-4,5,6,7-tetrahydro-1H-indole-3-carboxamide]
3 | Cc1cnc2nc(NC(=O)c3c[nH]c4c3C(=O)CCC4)ccc2c1 [Compound 11]
83 | O=C(Nc1ccc2ccc(Cl)nc2n1)c1c[nH]c2c1C(=O)CCC2 [Compound 10, N-(2-Chloro-1,8-napthyridin-7-yl)-4-oxo-4,5,6,7-tetrahydro-1H-indole-3-carboxamide]
